Laboratory results as given in patent US6127340A, “Serine protease inhibitors” (Trigen Limited, priority 1995, dated 2000).
Read-outs that look alike come from different tables or passages of the source.

Tests used:
human α-thrombin = human α-thrombin (Homo sapiens, UniProt P00734); experiment: Determination of Ki: inhibition of human α-thrombin catalysed hydrolysis of chromogenic substrate S-2238; format: biochemical
Experimental: The inhibition of human α-thrombin was determined by the inhibition of the enzyme catalysed hydrolysis of three different concentrations of the chromogenic substrate S-2238.
200 μl of sample or buffer and 50 μl of S-2238 were incubated at 37° C. for 1 min and 50 μl of human α-thrombin (0.25 NIH μ/ml) was added. The initial rate of inhibited and uninhibited reactions were recorded at […]. The increase in optical density was plotted according to the method of Lineweaver and Burke. The Km and apparent Km were determined and Ki was calculated using the relationship. [formula]
The buffer used contained 0.1M sodium phosphate, 0.2M NaCl, 0.5% PEG and 0.02% sodium azide, adjusted to pH 7.5 with orthophosphoric acid.
The samples consist of the compound dissolved in DMSO.
The reader is referred to Dixon, M and Webb, E. C., "Enzymes", third edition, 1979, Academic Press, the disclosure of which is incorporated herein by reference, for a further description of the measurement of Ki.

elastase = experiment: Inhibition constant (Ki) against elastase; format: biochemical
[1] = Table 4, 37° C., substrate S-2238
[2] = Table 6, comparative with prior art compounds, unit inferred, read-out: Ki(elastase)
[3] = Table 6, comparative with prior art compounds, unit inferred
[4] = Table 5, Ki against elastase, 37° C., read-out: Ela

Molecule | Ki (human α-thrombin; [1]) [nM] | also measured
CC1(C)C2CC3OB(C(OC(=O)C4CCCN4C(=O)C(NC(=O)OCc4ccccc4)C(c4ccccc4)c4ccccc4)c4ccccc4)OC3(C)C1C2 [Example 101, Cbz-D,L-Dpa-Pro-.psi.(CO2)-BoroPgl pinanediol] | 131 | –
CC1(C)C2CC3OB(C(OC(=O)C4CCCN4C(=O)[C@@H](Cc4ccccc4)NC(=O)OCc4ccccc4)c4ccccc4)OC3(C)C1C2 (stereo partly drawn) [Example 100, Cbz-D-Phe-Pro-.psi.(CO2)-boroPgl pinanediol] | 88 | –
Z-D-Phe-ProBoroEtgOPin [reference compound] | – | Ki (elastase; [2]): 561 nM; Ki (human α-thrombin; [3]): 1000 nM
CC(C)C(OC(=O)C1CCCN1C(=O)C(NC(=O)OCc1ccccc1)C(c1ccccc1)c1ccccc1)B1OC2CC3CC(C3(C)C)C2(C)O1 [Example 87, Benzyloxycarbonyl-D,L-diphenylalanylprolyl-.psi.(CO2)-borovaline pinanediol ester] | 18200 | Ki (elastase; [4]): 55000 nM
Cbz-D,L-Dpa-Pro-(CO2)boroPhe-OPin [Example 89] | 39 | –
CC(C)C(NC(=O)C1CCCN1C(=O)C(NC(=O)OCc1ccccc1)C(c1ccccc1)c1ccccc1)B1OC(C)(C)C(C)(C)O1 [Z-D-Dpa-Pro-BoroVal-OPin, reference compound] | – | Ki (elastase; [2]): > 70800 nM
Cbz-D-Dpa-Pro-.psi.(COCH2)BoroHpg(-)OPin [Example 270] | 292 | –
Z-D,L-Dpa-Pro-BoroPhe-OPin [reference compound] | – | Ki (human α-thrombin; [3]): 82 nM
CCC(OC(=O)C1CCCN1C(=O)C(NC(=O)OCc1ccccc1)C(c1ccccc1)c1ccccc1)B1OC2CC3CC(C3(C)C)C2(C)O1 [Example 90, Cbz-D,L-Dpa-Pro-.psi.(CO2)-1-propyl-1-boronate pinanediol] | 247 | Ki (elastase; [4]): 4500 nM
Z-D-Dpa-Pro-(CH2 O)-L-BoroMpg-OPin [Example 173] | 2390 | –
Cbz-D-Phe-Pro-.psi.(CH2 O)-BoroPhe-OPin [Example 102] | 148 | –
Cbz-D-Phe-Pro-.psi.(CO2)-boroethylglycine pinanediol [Example 85] | 269 | Ki (elastase; [4]): 87 nM
Z-D-Dpa-Pro(CO2)-L-BoroMpgOPin [Example 116] | 283 | –
CCOP(=O)(OCC)C(OC(=O)[C@@H]1CCCN1C(=O)C(NC(=O)OCc1ccccc1)C(c1ccccc1)c1ccccc1)c1ccccc1 (mixture of isomers) [Example 264, Cbz-DL-Dpa-Pro.psi.(CO2)Phg^P (OEt)2] | 16000 | –
Cbz-D-Dpa-Pro-.psi.(CO2)-GlyP(-)OPin [Example 177] | 13700 | –
Z-D,L-Dpa-(CO2)BoroMpgOPin [Example 109] | 435 | –
CCOP(=O)(OCC)C(OC(=O)C1CCCN1C(=O)C(NC(=O)OCc1ccccc1)C(c1ccccc1)c1ccccc1)c1ccc([N+](=O)[O-])cc1 (racemic) [Example 239, Cbz-DL-Dpa-Pro-CO2 pNO2Phg^P (OEt)2] | 6200 | –
Cbz-D-Phe-Pro-.psi.(CO2)-BoroPhe-OPin [Example 88] | 129 | –
CC1(C)C2CC3OB(C(Cc4ccccc4)OC(=O)C4CCCN4C(=O)[C@H](NC(=O)OCc4ccccc4)C(c4ccccc4)c4ccccc4)OC3(C)C1C2 (stereo partly drawn) [Example 91, Cbz-D-Dpa-Pro-.psi.(CO2)-boroPhe pinanediol] | 39.2 | –
